Test results published in ChEMBL document CHEMBL2396640, “Exploring DOXP-reductoisomerase binding limits using phosphonated N-aryl and N-heteroarylcarboxamides as DXR inhibitors” (Bioorg Med Chem, 2013).
The source made the active and inactive calls. The rule behind the calls is not given here.

Assays:
[1] = test system: Escherichia coli; assay: Inhibition of Escherichia coli DXR using DOXP as substrate assessed as conversion of NADPH to NADP at 250 uM preincubated for 5 mins measured after 10 mins relative to control
[2] = test system: Escherichia coli; assay: Inhibition of Escherichia coli DXR using DOXP as substrate assessed as conversion of NADPH to NADP at 500 uM preincubated for 5 mins
[3] = test system: Escherichia coli; assay: Binding affinity to Escherichia coli DXR at 20 uM by STD-NMR analysis
[4] = test system: Escherichia coli; assay: Activation of Escherichia coli DXR using DOXP as substrate assessed as conversion of NADPH to NADP at 250 uM preincubated for 5 mins
[5] = test system: Plasmodium falciparum; assay: Inhibition of Plasmodium falciparum DXR using DOXP as substrate assessed as conversion of NADPH to NADP at 250 uM preincubated for 5 mins relative to control
[6] = test system: Escherichia coli; assay: Inhibition of Escherichia coli DXR using DOXP as substrate assessed as conversion of NADPH to NADP at 250 uM preincubated for 5 mins relative to control
[7] = test system: Plasmodium falciparum; assay: Activation of Plasmodium falciparum DXR using DOXP as substrate assessed as conversion of NADPH to NADP at 250 uM preincubated for 5 mins relative to control
[8] = test system: Escherichia coli; assay: Activation of Escherichia coli DXR using DOXP as substrate assessed as conversion of NADPH to NADP at 500 uM preincubated for 5 mins

SMILES	inhibition [1]	inhibition [2]	Activity [3]	inhibition [6]	other results
CCOP(=O)(CCCC(=O)Nc1cccc(O)c1)OCC	0.8%				
CC(=O)c1sc(NC(=O)CP(=O)(O)O)nc1C		16.6%	Active		
CCOP(=O)(CCCCC(=O)Nc1cccc(OC)c1)OCC					Activity [4]: Active
CCOP(=O)(CC(=O)Nc1cccc(O)c1)OCC	24.4%			44.6%	inhibition [5]: 12%
CC(=O)c1sc(NC(=O)CCP(=O)(O)O)nc1C		0%	Active		
O=C(CCP(=O)(O)O)Nc1cccc(CO)c1	26.8%			16%	inhibition [5]: 10.9%
O=C(CCP(=O)(O)O)NCc1ccco1		0.3%	Active		
O=C(CCP(=O)(O)O)Nc1ccon1		0.2%	Active		
O=C(CP(=O)(O)O)NCc1ccco1		30%	Active		
CCOP(=O)(CC(=O)Nc1cccc(OC)c1)OCC				11%	Activity [7]: Active
N#Cc1cccc(NC(=O)CCCP(=O)(O)O)c1			inactive		
CCOP(=O)(CCC(=O)Nc1cccc(OC)c1)OCC	14.1%			23.3%	Activity [7]: Active
CCOP(=O)(CCC(=O)Nc1ccon1)OCC		0%	Active		
COc1cccc(NC(=O)CCP(=O)(O)O)c1				8.7%	Activity [7]: Active; Activity [4]: Active
O=C(CCP(=O)(O)O)Nc1cccc(O)c1	49.2%			23.7%	inhibition [5]: 1.1%
CCOP(=O)(CCC(=O)Nc1nc(C)c(C(C)=O)s1)OCC		0.3%	Active		
CCOP(=O)(CCC(=O)Nc1cccc(O)c1)OCC	33.5%			23.1%	Activity [7]: Active
COc1cccc(NC(=O)CCCCP(=O)(O)O)c1					Activity [4]: Active
CCOP(=O)(CC(=O)Nc1ccon1)OCC		11.7%	Active		
CCOP(=O)(CCC(=O)Nc1nccs1)OCC		0.1%	Active		
O=C(CCP(=O)(O)O)Nc1nccs1		0.2%	Active		
O=C(CP(=O)(O)O)Nc1nccs1		7.4%	Active		

SMILES	inhibition [1]	inhibition [2]	Activity [3]	inhibition [6]	other results
O=C(CP(=O)(O)O)Nc1cccc(Br)c1	26.8%			22.3%	inhibition [5]: 42%
CCOP(=O)(CCC(=O)Nc1ccccn1)OCC			Active		Activity [8]: Active
CCOP(=O)(CC(=O)Nc1nc(C)c(C(C)=O)s1)OCC		21.6%	Active		
N#Cc1cccc(NC(=O)CP(=O)(O)O)c1	20%			8.2%	Activity [7]: Active
O=C(CP(=O)(O)O)Nc1ccon1		12.2%	Active		
O=C(CCP(=O)(O)O)Nc1ccccn1		0%	Active		
CCOP(=O)(CC(=O)Nc1nccs1)OCC		28.9%	Active		
O=C(CCCCP(=O)(O)O)Nc1cccc(Br)c1			inactive		Activity [4]: Active
O=C(CCCCP(=O)(O)O)Nc1cccc(O)c1			inactive		Activity [4]: Active
CCOP(=O)(CC(=O)NCc1ccco1)OCC		67.7%	Active		
CCOP(=O)(CC(=O)Nc1cccc(CO)c1)OCC				40.4%	inhibition [5]: 40.7%
O=C(CP(=O)(O)O)Nc1ccccn1			Active		Activity [8]: Active
CCOP(=O)(CCC(=O)Nc1cccc(CO)c1)OCC	17.9%			17.1%	Activity [7]: Active
CCOP(=O)(CC(=O)Nc1cccc(Br)c1)OCC	21.4%			16.3%	Activity [7]: Active
CCOP(=O)(CC(=O)Nc1ccccn1)OCC		58.5%	Active		
CCOP(=O)(CCC(=O)NCc1ccco1)OCC		0.2%	Active		
COc1cccc(NC(=O)CP(=O)(O)O)c1	17.8%			31.9%	inhibition [5]: 40.8%
O=C(CCCP(=O)(O)O)Nc1cccc(O)c1	0.7%				
CCOP(=O)(CCCCC(=O)Nc1cccc(O)c1)OCC					Activity [4]: Active
O=C(CP(=O)(O)O)Nc1cccc(O)c1	43.9%			34.4%	inhibition [5]: 45.2%
CCOP(=O)(CC(=O)Nc1cccc(C#N)c1)OCC	11.9%			21.9%	inhibition [5]: 4.8%
CCOP(=O)(CCCC(=O)Nc1cccc(Br)c1)OCC					Activity [4]: Active
